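Exposure lasted 48 hours, with cells grown in 96-well plates and compounds tested at five concentrations. At the TGI there is no net growth.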
How the values were obtained:
Assay in all cases: growth of human tumour cells (NCI), 48 h
[1] = system: NCI-H460 lung
[2] = system: EKVX NSCLC
[3] = system: UACC-257 melanoma
[4] = system: HCC-2998 colon
[5] = system: SNB-75 CNS
[6] = system: CCRF-CEM leukemia
[7] = system: OVCAR-4 ovarian
[8] = system: SNB-19 CNS
[9] = system: HOP-62 NSCLC
[10] = system: HCT-116 colon
[11] = system: UO-31 renal
[12] = system: SK-MEL-5 melanoma
[13] = system: CAKI-1 renal
[14] = system: COLO 205 colon
[15] = system: SF-295 CNS
[16] = system: DU-145 prostate
[17] = system: SK-MEL-28 melanoma
[18] = system: NCI/ADR-RES ovarian
[19] = system: A498 renal
[20] = system: MDA-N
[21] = system: 786-0 renal
[22] = system: HCT-15 colon
[23] = system: M14 melanoma
[24] = system: PC-3 prostate
[25] = system: BT-549 breast
[26] = system: U251 CNS
[27] = system: RPMI-8226 leukemia
[28] = system: MCF7 breast
[29] = system: SN12C renal
[30] = system: SF-539 CNS
[31] = system: SK-MEL-2 melanoma
[32] = system: ACHN renal
[33] = system: T-47D breast
[34] = system: SW-620 colon
[35] = system: OVCAR-5 ovarian
[36] = system: UACC-62 melanoma
[37] = system: TK-10 renal
[38] = system: MOLT-4 leukemia
[39] = system: HT29 colon
[40] = system: IGROV1 ovarian
[41] = system: HS 578T breast
[42] = system: A549 NSCLC
[43] = system: NCI-H23 lung
[44] = system: MDA-MB-435
[45] = system: K-562 leukemia
[46] = system: OVCAR-3 ovarian
[47] = system: KM12 colon
[48] = system: SR leukemia
[49] = system: SK-OV-3 ovarian
[50] = system: NCI-H522 lung
[51] = system: MALME-3M melanoma
[52] = system: HOP-92 NSCLC
[53] = system: HL-60(TB) leukemia
[54] = system: LOX IMVI melanoma
[55] = system: NCI-H226 lung
[56] = system: MDA-MB-231 breast
[57] = system: OVCAR-8 ovarian
[58] = system: SF-268 CNS

For CSC1=N[C@H](c2ccccc2)CS1, which TGI [1] is on record?
The TGI was over 100 µM.

What about the TGI [2] of the same molecule?
The TGI was over 100 µM.

And the TGI [3]?
Its TGI is over 100 µM.

What about the TGI [4] of the same molecule?
The TGI was over 100 µM.

And the TGI [5]?
The TGI was over 100 µM.

And the TGI [6]?
The TGI was over 100 µM.

What about the TGI [7] of the same molecule?
Its TGI is over 100 µM.

And the TGI [8]?
The TGI was over 100 µM.

What about the TGI [9] of the same molecule?
The TGI was over 100 µM.

What about the TGI [10] of the same molecule?
Its TGI is over 100 µM.

What about the TGI [11] of the same molecule?
The TGI was over 100 µM.

And the TGI [12]?
Its TGI is over 100 µM.

What about the TGI [13] of the same molecule?
Its TGI is over 100 µM.

What about the TGI [14] of the same molecule?
The TGI was over 100 µM.

And the TGI [15]?
Its TGI is over 100 µM.

What about the TGI [16] of the same molecule?
Its TGI is over 100 µM.

And the TGI [17]?
Its TGI is over 100 µM.

And the TGI [18]?
Its TGI is over 100 µM.

What about the TGI [19] of the same molecule?
The TGI was over 100 µM.

And the TGI [20]?
Its TGI is over 100 µM.

What about the TGI [21] of the same molecule?
Its TGI is over 100 µM.

And the TGI [22]?
Its TGI is over 100 µM.

What about the TGI [23] of the same molecule?
The TGI was over 100 µM.

What about the TGI [24] of the same molecule?
Its TGI is over 100 µM.

What about the TGI [25] of the same molecule?
Its TGI is over 100 µM.

And the TGI [26]?
Its TGI is over 100 µM.

And the TGI [27]?
Its TGI is over 100 µM.

And the TGI [28]?
Its TGI is over 100 µM.

And the TGI [29]?
The TGI was over 100 µM.

What about the TGI [30] of the same molecule?
The TGI was over 100 µM.

What about the TGI [31] of the same molecule?
The TGI was over 100 µM.

And the TGI [32]?
Its TGI is over 100 µM.

And the TGI [33]?
Its TGI is over 100 µM.

And the TGI [34]?
Its TGI is over 100 µM.

What about the TGI [35] of the same molecule?
Its TGI is over 100 µM.

What about the TGI [36] of the same molecule?
The TGI was over 100 µM.

What about the TGI [37] of the same molecule?
The TGI was over 100 µM.

And the TGI [38]?
Its TGI is over 100 µM.

And the TGI [39]?
The TGI was over 100 µM.

What about the TGI [40] of the same molecule?
The TGI was over 100 µM.

And the TGI [41]?
The TGI was over 100 µM.

And the TGI [42]?
Its TGI is over 100 µM.

What about the TGI [43] of the same molecule?
Its TGI is over 100 µM.

What about the TGI [44] of the same molecule?
Its TGI is over 100 µM.

And the TGI [45]?
The TGI was over 100 µM.

And the TGI [46]?
Its TGI is over 100 µM.

And the TGI [47]?
Its TGI is over 100 µM.

What does the source list for CCOC(=O)/C(C)=C\[C@@]1(C)O[C@@H](C)[C@@](C)(OC(C)=O)[C@@H]1OC(C)=O?
TGI [1]: > 100 µM; TGI [2]: > 100 µM; TGI [3]: > 100 µM; TGI [4]: > 100 µM; TGI [6]: > 100 µM; TGI [7]: > 100 µM; TGI [8]: > 100 µM; TGI [9]: > 100 µM; TGI [10]: > 100 µM; TGI [12]: > 100 µM; TGI [13]: > 100 µM; TGI [48]: > 100 µM; TGI [49]: > 100 µM; TGI [14]: > 100 µM; TGI [50]: 62.7 µM; TGI [15]: > 100 µM; TGI [16]: > 100 µM; TGI [17]: > 100 µM; TGI [18]: > 100 µM; TGI [19]: > 100 µM; TGI [20]: > 100 µM; TGI [21]: > 100 µM; TGI [22]: 60.2 µM; TGI [23]: > 100 µM; TGI [24]: > 100 µM; TGI [51]: > 100 µM; TGI [26]: > 100 µM; TGI [27]: > 100 µM; TGI [28]: > 100 µM; TGI [29]: > 100 µM; TGI [52]: > 100 µM; TGI [30]: > 100 µM; TGI [31]: > 100 µM; TGI [32]: > 100 µM; TGI [33]: 59.8 µM; TGI [53]: > 100 µM; TGI [34]: > 100 µM; TGI [35]: > 100 µM; TGI [54]: > 100 µM; TGI [36]: > 100 µM; TGI [37]: > 100 µM; TGI [38]: > 100 µM; TGI [55]: > 100 µM; TGI [56]: > 100 µM; TGI [57]: > 100 µM; TGI [39]: > 100 µM; TGI [40]: > 100 µM; TGI [41]: > 100 µM; TGI [42]: > 100 µM; TGI [43]: 77.1 µM; TGI [44]: > 100 µM; TGI [45]: > 100 µM; TGI [46]: > 100 µM; TGI [47]: > 100 µM; TGI [58]: > 100 µM

Reference: PubChem BioAssay (NCI)
